Results as given in US12343472B2, “Powder preparation, cartridge, and device” (Shin Nippon Biomedical Laboratories, Ltd., priority 2018, dated 2025).
Where “and” joins values, the source holds several entries; their conditions need not be identical. Identical values can stand only once. Like-named read-outs stand apart in the source and are kept apart here.

Legend:
[1] = Blood oxytocin concentration in monkey (EIA); format: in vivo, cynomolgus monkey; details: for AUC0-t / Cmax: blood oxytocin
Description: (§1) In order to measure the blood oxytocin concentration, blood was collected from the femoral vein with a syringe (dispensed into an EDTA-2K-containing blood collection tube) before administration and 2, 5, 10, 30, 60, 120, 240 and 480 minutes after administration (9 times in total). In order to measure the cerebrospinal fluid oxytocin concentration, cerebrospinal fluid was collected via a catheter indwelled in the cisterna magna before administration and 10, 30, 60, 120, 240 and 480 minutes after administration (7 times in total). The oxytocin concentration was measured by an EIA method involving an Oxytocin Enzyme Immunoassay Kit: Extraction-Free (Peninsula Laboratories International). This test was performed after being approved by the Animal Experimentation Ethics Committee of SNBL, Ltd.

in vivo = details: male, cynomolgus monkey, iv
Description: as §1

[2] = intravenous, individual animals

For `CC[C@H](C)[C@@H]1NC(=O)[C@H](Cc2ccc(O)cc2)NC(=O)[C@@H](N)CSSC[C@@H](C(=O)N2CCC[C@H]2C(=O)N[C@@H](CC(C)C)C(=O)NCC(N)=O)NC(=O)[C@H](CC(N)=O)NC(=O)[C@H](CCC(N)=O)NC1=O` [Comparative Example 13, oxytocin], the Blood oxytocin concentration ([1]; 2 min, oxytocin solution (0.4 mg/mL) intravenous, individual animals) was 222.00 ng/mL and 246.00 ng/mL and 205.00 ng/mL and 168.00 ng/mL and 202.00 ng/mL and 190.00 ng/mL, the Blood oxytocin concentration ([1]; 5 min, intravenous, individual animals) was 110.00 ng/mL and 101.00 ng/mL and 116.00 ng/mL and 68.00 ng/mL and 68.40 ng/mL and 105.00 ng/mL and the Blood oxytocin concentration ([1]; 10 min, intravenous, individual animals) was 48.40 ng/mL and 64.20 ng/mL and 55.10 ng/mL and 40.40 ng/mL and 50.00 ng/mL and 55.70 ng/mL. For the same compound, the Blood oxytocin concentration ([1]; 30 min, intravenous, individual animals) was 10.50 ng/mL and 15.00 ng/mL and 11.80 ng/mL and 7.10 ng/mL and 9.60 ng/mL and 11.60 ng/mL, the Blood oxytocin concentration ([1]; 60 min, intravenous, individual animals) was 2.80 ng/mL (2×) and 4.50 ng/mL and 2.90 ng/mL and 2.50 ng/mL and 2.60 ng/mL and the Blood oxytocin concentration ([1]; 120 min, intravenous, individual animals) was 0.00 ng/mL (5×) and 1.10 ng/mL. The Blood oxytocin concentration ([1]; 240 min, intravenous, average n=6) was 0.00 ng/mL, the Blood oxytocin concentration ([1]; 240 min, intravenous, individual animals) was 0.00 ng/mL and the Blood oxytocin concentration ([1]; 480 min, intravenous, average n=6) was 0.00 ng/mL. The Blood oxytocin concentration ([1]; 480 min, intravenous, individual animals) was 0.00 ng/mL, the AUC0-t [1, 2] was 47.345 ng·h/mL and 39.252 ng·h/mL and 28.695 ng·h/mL and 34.345 ng·h/mL and 37.415 ng·h/mL and the Cmax [1, 2] was 246.00 ng/mL and 205.00 ng/mL and 168.00 ng/mL and 202.00 ng/mL and 190.00 ng/mL. It also gave an AUC0-t ([1]; male, cynomolgus monkey, blood, iv, intravenous, average n=6, read-out: AUC0-t (converted)) of 37.5 ng·h/mL, a Cmax ([1]; male, cynomolgus monkey, blood, iv, intravenous, average n=6, read-out: Cmax) of 206 ng/mL and an AUC0-t ([1]; male, cynomolgus monkey, blood, iv, intravenous, individual animals, read-out: AUC0-t (converted)) of 38.1 ng·h/mL. For the same compound, the Cmax ([1]; male, cynomolgus monkey, blood, iv, intravenous, individual animals, read-out: Cmax) was 222 ng/mL, the level at […] ([1]; male, cynomolgus monkey, blood, 2 min, intravenous, average n=6) was 206 ng/mL and the level at […] ([1]; male, cynomolgus monkey, blood, 5 min, intravenous, average n=6) was 94.7 ng/mL. The level at […] ([1]; male, cynomolgus monkey, blood, 10 min, intravenous, average n=6) was 52.3 ng/mL, the level at 0.5 h ([1]; male, cynomolgus monkey, blood, 30 min, intravenous, average n=6) was 10.9 ng/mL and the level at 1 h ([1]; male, cynomolgus monkey, blood, 60 min, intravenous, average n=6) was 3.02 ng/mL. The level at 2 h ([1]; male, cynomolgus monkey, blood, 120 min, intravenous, average n=6) was 0.18 ng/mL, the level at 0.5 h (in vivo) was 0.204 ng/mL and the level at 1 h (in vivo) was 0.11 ng/mL. It also gave a level at 2 h (in vivo) of 0.057 ng/mL and a level at 4 h (in vivo) of 0.005 ng/mL.
